#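 GI50 marks 50% less growth. TGI denotes the concentration required for complete inhibition of growth.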
# What was measured:
# Experiment in all cases: DTP human tumour cell line panel, 384-well format
# [1] = tested on: HOP-92 NSCLC
# [2] = tested on: NCI-H23 lung
# [3] = tested on: SK-OV-3 ovarian
# [4] = tested on: MDA-MB-468 breast
# [5] = tested on: HCT-15 colon
# [6] = tested on: OVCAR-4 ovarian
# [7] = tested on: TK-10 renal
# [8] = tested on: LOX IMVI melanoma
# [9] = tested on: IGROV1 ovarian
# [10] = tested on: SR leukemia
# [11] = tested on: HCT-116 colon
# [12] = tested on: SN12C renal
# [13] = tested on: MDA-MB-231 breast
# [14] = tested on: NCI-H522 lung
# [15] = tested on: U251 glioblastoma
# [16] = tested on: SF-539 CNS
# [17] = tested on: NCI/ADR-RES ovarian
# [18] = tested on: UACC-62 melanoma
# [19] = tested on: OVCAR-8 ovarian
# [20] = tested on: MCF7 breast
# [21] = tested on: HCC-2998 colon
# [22] = tested on: MALME-3M melanoma
# [23] = tested on: RPMI-8226 leukemia
# [24] = tested on: OVCAR-3 ovarian
# [25] = tested on: BT-549 breast
# [26] = tested on: SF-268 CNS
# [27] = tested on: COLO 205 colon
# [28] = tested on: PC-3 prostate
# [29] = tested on: HS 578T breast
# [30] = tested on: DU-145 prostate
# [31] = tested on: SNB-19 CNS
# [32] = tested on: SK-MEL-28 melanoma
# [33] = tested on: NCI-H322M lung
# [34] = tested on: SK-MEL-5 melanoma
# [35] = tested on: UACC-257 melanoma
# [36] = tested on: MDA-MB-435 melanoma
# [37] = tested on: ACHN renal
# [38] = tested on: T-47D breast
# [39] = tested on: EKVX NSCLC
# [40] = tested on: MOLT-4 leukemia
# [41] = tested on: M14 melanoma
# [42] = tested on: CAKI-1 renal
# [43] = tested on: OVCAR-5 ovarian
# [44] = tested on: HOP-62 NSCLC
# [45] = tested on: SF-295 CNS
# [46] = tested on: NCI-H226 lung
# [47] = tested on: KM12 colon
# [48] = tested on: NCI-H460 NSCLC
# [49] = tested on: HL-60(TB) leukemia
# [50] = tested on: A549 NSCLC
# [51] = tested on: A498 renal
# [52] = tested on: RXF 393 renal
# [53] = tested on: SNB-75 CNS
# [54] = tested on: HT29 colon
# [55] = tested on: 786-0 renal
# [56] = tested on: SK-MEL-2 melanoma
# [57] = tested on: SW-620 colon
# [58] = tested on: UO-31 renal
# [59] = tested on: K-562 leukemia
structure (smiles),measurement,setting,value
CCc1c[nH]c2ncnc(N3CC[C@](N)(CNC(=O)c4ccc(F)cc4F)C3)c12,GI50,[1],29.6 µM
same,TGI,[1],> 100 µM
same,GI50,[2],13.8 µM
same,TGI,[2],> 100 µM
same,GI50,[3],0.892 µM
same,TGI,[3],> 100 µM
same,GI50,[4],0.454 µM
same,TGI,[4],18.9 µM
same,GI50,[5],5.47 µM
same,TGI,[5],> 100 µM
same,GI50,[6],32 µM
same,TGI,[6],> 100 µM
same,GI50,[7],1.26 µM
same,TGI,[7],45.3 µM
same,GI50,[8],18.8 µM
same,TGI,[8],> 100 µM
same,GI50,[9],0.149 µM
same,TGI,[9],1.71 µM
same,GI50,[10],0.0603 µM
same,TGI,[10],1.98 µM
same,GI50,[11],6.21 µM
same,TGI,[11],> 100 µM
same,GI50,[12],7.5 µM
same,TGI,[12],> 100 µM
same,GI50,[13],68.8 µM
same,TGI,[13],> 100 µM
same,GI50,[14],11 µM
same,TGI,[14],35.8 µM
same,GI50,[15],2.79 µM
same,TGI,[15],> 100 µM
same,GI50,[16],0.442 µM
same,TGI,[16],> 100 µM
same,GI50,[17],12.3 µM
same,TGI,[17],> 100 µM
same,GI50,[18],4.26 µM
same,TGI,[18],25.1 µM
same,GI50,[19],15 µM
same,TGI,[19],> 100 µM
same,GI50,[20],0.375 µM
same,TGI,[20],> 100 µM
same,GI50,[21],3.13 µM
same,TGI,[21],88 µM
same,GI50,[22],8.62 µM
same,TGI,[22],28.6 µM
same,GI50,[23],3.38 µM
same,TGI,[23],30.2 µM
same,GI50,[24],8.07 µM
same,TGI,[24],> 100 µM
same,GI50,[25],1.27 µM
same,TGI,[25],18.4 µM
same,GI50,[26],> 100 µM
same,TGI,[26],> 100 µM
same,GI50,[27],4.95 µM
same,TGI,[27],28.6 µM
same,GI50,[28],0.446 µM
same,TGI,[28],21.8 µM
same,GI50,[29],2.53 µM
same,TGI,[29],95.3 µM
same,GI50,[30],6.69 µM
same,TGI,[30],> 100 µM
same,GI50,[31],3.49 µM
same,TGI,[31],> 100 µM
same,GI50,[32],9.04 µM
same,TGI,[32],> 100 µM
same,GI50,[33],7.12 µM
same,TGI,[33],> 100 µM
same,GI50,[34],12.9 µM
same,TGI,[34],28.9 µM
same,GI50,[35],7.7 µM
same,TGI,[35],31.1 µM
same,GI50,[36],15.4 µM
same,TGI,[36],73.4 µM
same,GI50,[37],4.85 µM
same,TGI,[37],> 100 µM
same,GI50,[38],0.343 µM
same,TGI,[38],> 100 µM
same,GI50,[39],7.28 µM
same,TGI,[39],46.2 µM
same,GI50,[40],0.237 µM
same,TGI,[40],1.76 µM
same,GI50,[41],14.4 µM
same,TGI,[41],> 100 µM
same,GI50,[42],5.18 µM
same,TGI,[42],> 100 µM
same,GI50,[43],4.4 µM
same,TGI,[43],55.8 µM
same,GI50,[44],6.34 µM
same,TGI,[44],82.3 µM
same,GI50,[45],1.95 µM
same,TGI,[45],> 100 µM
same,GI50,[46],9.86 µM
same,TGI,[46],> 100 µM
same,GI50,[47],0.959 µM
same,TGI,[47],> 100 µM
same,GI50,[48],0.536 µM
same,TGI,[48],20.2 µM
same,GI50,[49],10.4 µM
same,TGI,[49],23.5 µM
same,GI50,[50],10.8 µM
same,TGI,[50],> 100 µM
same,GI50,[51],0.136 µM
same,TGI,[51],2.09 µM
same,GI50,[52],3.34 µM
same,TGI,[52],> 100 µM
same,GI50,[53],0.626 µM
same,TGI,[53],> 100 µM
same,GI50,[54],3.98 µM
same,TGI,[54],> 100 µM
O=C1COc2c(CCNCCN(C(=O)CCNCCc3ccc(Cl)c(Cl)c3)C3CCCCC3)ccc(O)c2N1,GI50,[1],1.89 µM
same,TGI,[1],4.35 µM
same,GI50,[2],14.8 µM
same,TGI,[2],28 µM
same,GI50,[3],15.5 µM
same,TGI,[3],28.9 µM
same,GI50,[4],1.83 µM
same,TGI,[4],3.27 µM
same,GI50,[5],17.8 µM
same,TGI,[5],31.9 µM
same,GI50,[6],16.1 µM
same,TGI,[6],29.7 µM
same,GI50,[7],10.4 µM
same,TGI,[7],22.2 µM
same,GI50,[9],7.16 µM
same,TGI,[9],19.7 µM
same,GI50,[10],1.75 µM
same,TGI,[10],3.14 µM
same,GI50,[11],11.5 µM
same,TGI,[11],23.7 µM
same,GI50,[12],15.8 µM
same,TGI,[12],29.3 µM
same,GI50,[13],1.88 µM
same,TGI,[13],10.7 µM
same,GI50,[14],2.5 µM
same,TGI,[14],5.7 µM
same,GI50,[15],5.85 µM
same,TGI,[15],18 µM
same,GI50,[16],11.2 µM
same,TGI,[16],23.3 µM
same,GI50,[18],2.1 µM
same,TGI,[18],4.82 µM
same,GI50,[19],15.1 µM
same,TGI,[19],28.5 µM
same,GI50,[20],1.89 µM
same,TGI,[20],3.38 µM
same,GI50,[22],5.14 µM
same,TGI,[22],15.6 µM
same,GI50,[24],10.3 µM
same,TGI,[24],22 µM
same,GI50,[25],3.29 µM
same,TGI,[25],12 µM
same,GI50,[26],4.73 µM
same,TGI,[26],16.1 µM
same,GI50,[27],2.69 µM
same,TGI,[27],6.13 µM
same,GI50,[28],10.8 µM
same,TGI,[28],22.8 µM
same,GI50,[29],1.76 µM
same,TGI,[29],3.44 µM
same,GI50,[30],16.2 µM
same,TGI,[30],29.8 µM
same,GI50,[31],16.8 µM
same,TGI,[31],30.5 µM
same,GI50,[32],4.31 µM
same,TGI,[32],14.6 µM
same,GI50,[33],14.2 µM
same,TGI,[33],27.3 µM
same,GI50,[34],6.31 µM
same,TGI,[34],18.1 µM
same,GI50,[35],2.75 µM
same,TGI,[35],6.62 µM
same,GI50,[36],2.12 µM
same,TGI,[36],4.44 µM
same,GI50,[37],15.5 µM
same,TGI,[37],28.9 µM
same,GI50,[38],4.22 µM
same,TGI,[38],14.6 µM
same,GI50,[55],15.8 µM
same,TGI,[55],29.3 µM
same,GI50,[39],12.4 µM
same,TGI,[39],24.9 µM
same,GI50,[40],2.01 µM
same,TGI,[40],3.45 µM
same,GI50,[41],4.2 µM
same,TGI,[41],12.9 µM
same,GI50,[56],1.79 µM
same,TGI,[56],3.18 µM
same,GI50,[42],14.5 µM
same,TGI,[42],27.7 µM
same,GI50,[43],16.2 µM
same,TGI,[43],29.8 µM
same,GI50,[44],14.5 µM
same,TGI,[44],27.7 µM
same,GI50,[45],13.7 µM
same,TGI,[45],26.6 µM
same,GI50,[46],12.3 µM
same,TGI,[46],24.8 µM
same,GI50,[57],5.25 µM
same,TGI,[57],16.8 µM
same,GI50,[58],17.8 µM
same,TGI,[58],31.7 µM
same,GI50,[47],11.1 µM
same,TGI,[47],23.3 µM
same,GI50,[48],2.26 µM
same,TGI,[48],4.96 µM
same,GI50,[59],3.24 µM
same,TGI,[59],10.3 µM
same,GI50,[49],1.83 µM
same,TGI,[49],3.25 µM
same,GI50,[50],17.5 µM
same,TGI,[50],31.4 µM
same,GI50,[51],14.9 µM
same,TGI,[51],28.2 µM
same,GI50,[52],2.86 µM
same,TGI,[52],10.8 µM
same,GI50,[53],2.28 µM
same,TGI,[53],7.25 µM
same,GI50,[54],13.4 µM
same,TGI,[54],26.2 µM
